Test results published in ChEMBL document CHEMBL1201862, “PubChem BioAssay data set” (2004).
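Interpolation was linear, between the two tested concentrations surrounding the appropriate level; five concentrations were tested over 48 hours in 96-well plates. GI50: concentration for 50% inhibition of growth.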 The source made the active and inactive calls. Cut-off read from the data, not from the text of the source: active = GI50 up to about 1.1 µM and inactive = higher.

Key:
Experiment in all cases: growth of human tumour cells (NCI), 48 h
[1] = system: NCI-H460
[2] = system: MDA-MB-231
[3] = system: UO-31
[4] = system: MDA-N
[5] = system: MCF7
[6] = system: HCT-15
[7] = system: MDA-MB-435
[8] = system: Malme-3M
[9] = system: SK-MEL-2
[10] = system: HCC 2998
[11] = system: EKVX
[12] = system: BT-549
[13] = system: OVCAR-8
[14] = system: HCT-116
[15] = system: NCI/ADR-RES
[16] = system: M14
[17] = system: SN12C
[18] = system: TK-10
[19] = system: OVCAR-3
[20] = system: MOLT-4
[21] = system: NCI-H23
[22] = system: SK-MEL-28
[23] = system: OVCAR-5
[24] = system: DU-145
[25] = system: SR
[26] = system: HOP-62
[27] = system: HT-29
[28] = system: HL-60
[29] = system: SF-295
[30] = system: A549
[31] = system: OVCAR-4
[32] = system: PC-3
[33] = system: SNB-19
[34] = system: CCRF-CEM
[35] = system: CAKI-1
[36] = system: KM12
[37] = system: UACC-257
[38] = system: LOX IMVI
[39] = system: RPMI-8226
[40] = system: COLO 205
[41] = system: 786-0
[42] = system: U-251
[43] = system: ACHN
[44] = system: K562
[45] = system: SK-MEL-5
[46] = system: HOP-92
[47] = system: SNB-75
[48] = system: NCI-H522
[49] = system: SF-539
[50] = system: NCI-H226
[51] = system: A498
[52] = system: UACC-62
[53] = system: RXF 393
[54] = system: SK-OV-3
[55] = system: IGROV-1
[56] = system: SW-620

Measured: GI50

NNC(=O)c1nnn(CCc2ccccc2)c1C(=O)NN
inactive: [1] > 100 µM | [2] > 100 µM | [3] > 100 µM | [4] > 100 µM | [5] > 100 µM | [7] > 100 µM | [8] > 100 µM | [9] > 100 µM | [10] > 100 µM | [11] > 100 µM | [12] > 100 µM | [13] > 100 µM | [14] > 100 µM | [15] > 100 µM | [16] > 100 µM | [17] > 100 µM | [18] 68.2 µM | [19] > 100 µM | [20] > 100 µM | [21] > 100 µM | [22] > 100 µM | [23] > 100 µM | [24] > 100 µM | [25] > 100 µM | [26] > 100 µM | [27] > 100 µM | [28] > 100 µM | [29] > 100 µM | [30] > 100 µM | [31] > 100 µM | [32] > 100 µM | [33] > 100 µM | [34] > 100 µM | [35] > 100 µM | [36] > 100 µM | [37] > 100 µM | [38] > 100 µM | [39] > 100 µM | [40] > 100 µM | [41] > 100 µM | [42] > 100 µM | [43] > 100 µM | [44] > 100 µM | [45] > 100 µM
> 100 µM: [6]

O=S1(=O)OCCOS(=O)(=O)C1Cc1nc2ccccc2[nH]1
26 µM: [6]
active: [46] 0.114 µM
inactive: [1] 28.2 µM | [2] 43 µM | [3] 75.7 µM | [4] 22.3 µM | [5] 33.7 µM | [7] 51.2 µM | [8] > 100 µM | [9] 72.3 µM | [10] 54.7 µM | [11] > 100 µM | [12] > 10 µM | [13] 55.6 µM | [14] 23 µM | [15] 30.3 µM | [16] 44.8 µM | [17] 35.2 µM | [18] > 100 µM | [19] 45.8 µM | [20] 24.2 µM | [21] 41 µM | [22] 97.1 µM | [23] > 100 µM | [24] > 100 µM | [25] 28.6 µM | [26] 26.8 µM | [27] 51.2 µM | [28] 22.5 µM | [29] 24.7 µM | [30] 44.6 µM | [31] 44.2 µM | [32] 19.6 µM | [33] 37.2 µM | [34] 33 µM | [35] 27 µM | [36] 68.2 µM | [37] 29.2 µM | [38] 14.5 µM | [39] 34.3 µM | [40] 83.2 µM | [41] 39.7 µM | [42] 38.6 µM | [43] 32.1 µM | [44] 34.5 µM | [45] 34.7 µM

N#Cc1c(-c2ccc(Cl)cc2)c(C#N)c(=O)n(NS(=O)(=O)c2ccccc2)c1S
inactive: [1] 18.8 µM | [47] 28.7 µM | [48] 18.2 µM | [2] 26.7 µM | [3] 16.2 µM | [4] 25.9 µM | [5] 32.6 µM | [7] 23.5 µM | [49] 18.3 µM | [8] 25.9 µM | [50] 30.3 µM | [9] 47.3 µM | [51] 27.7 µM | [10] > 10 µM | [11] 32.6 µM | [12] 25.9 µM | [13] 19.9 µM | [14] 25.5 µM | [15] 21.2 µM | [52] 19.1 µM | [16] 26.7 µM | [46] 44.7 µM | [53] 35.8 µM | [17] 25.2 µM | [18] 18.5 µM | [19] 23.1 µM | [20] 21.6 µM | [21] 39.3 µM | [54] 87.5 µM | [23] 54.7 µM | [24] 52.8 µM | [25] 17 µM | [28] 16.6 µM | [29] 34.2 µM | [30] 29.4 µM | [31] 56.6 µM | [32] 19.1 µM | [34] 5.79 µM | [55] 21.6 µM | [35] 26.2 µM | [37] 46.7 µM | [38] 18 µM | [39] 23.9 µM | [40] 30.5 µM | [41] 17.2 µM | [42] 23.1 µM | [43] 24.9 µM | [44] 27.9 µM | [56] 26.2 µM | [45] 14.2 µM
21.9 µM: [6]
